According to patent US10681909B2, “Herbicidal triazoles” (FMC Corporation, priority 2014, dated 2020):

How the values were obtained:
[1] = system: ragweed; assay: Test C postemergence; assay type: in vivo, Ambrosia elatior
Outline: (§1)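 Test chemicals in a non-phytotoxic solvent mixture with surfactant were applied to pots of plants at 2 to 18 cm (1- to 4-leaf stage) for postemergence treatment, grown in a peat-based medium with vermiculite, starter nutrients and dolomitic limestone. Preemergence treatment was to seeds freshly planted in loam soil mixed with sand.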

[2] = system: sedge, umbrella; assay: Test B flooded paddy test; assay type: in vivo, Cyperus difformis; details: 250 g ai/ha, applied to paddy water at 2-leaf stage, visual rating after 13 to 15 d, scale 0 (no effect) to 100 (complete control)
Outline: (§2)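 Pots were flooded to 3 cm above the soil at treatment, and compounds were applied directly into the paddy water. That depth was held throughout. After 13 to 15 d in a greenhouse, plants were rated visually against untreated controls.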

[3] = system: blackgrass; assay: Test C postemergence; assay type: in vivo, Alopecurus myosuroides
Outline: as §1

[4] = system: kochia; assay: Test C postemergence; assay type: in vivo, Kochia scoparia
Outline: as §1

[5] = system: johnsongrass; assay: Test C postemergence; assay type: in vivo, Sorghum halepense
Outline: as §1

[6] = system: ducksalad; assay: Test B flooded paddy test; assay type: in vivo, Heteranthera limosa; details: 250 g ai/ha, applied to paddy water at 2-leaf stage, visual rating after 13 to 15 d, scale 0 (no effect) to 100 (complete control)
Outline: as §2

[7] = system: foxtail, giant; assay: Test C postemergence; assay type: in vivo, Setaria faberii
Outline: as §1

[8] = system: chickweed; assay: Test C postemergence; assay type: in vivo, Stellaria media
Outline: as §1

[9] = system: barnyardgrass; assay: Test C postemergence; assay type: in vivo, Echinochloa crus-galli
Outline: as §1

[10] = system: morningglory; assay: Test C postemergence; assay type: in vivo, Ipomoea coccinea
Outline: as §1

[11] = system: oat, wild; assay: Test C postemergence; assay type: in vivo, Avena fatua
Outline: as §1

[12] = system: crabgrass, large; assay: Test C preemergence; assay type: in vivo, Digitaria sanguinalis; details: for Plant response rating (scale of 0 to 100 where 0 is no effect and 100 is complete control): Crabgrass, Large, preemergence; for Crabgrass, Large plant response rating (0 to 100): Preemergence, visual rating after 13 to 15 d
Text: Seeds of plant species selected from blackgrass (Alopecurus myosuroides), ryegrass, Italian (Italian ryegrass, Lolium multiflorum), wheat (winter wheat, Triticum aestivum), galium (catchweed bedstraw, Galium aparine), corn (Zea mays), crabgrass, large (large crabgrass, Digitaria sanguinalis), foxtail, giant, (giant foxtail, Setaria faberii), johnsongrass (Sorghum halepense), lambsquarters (Chenopodium album), morningglory (Ipomoea coccinea), nutsedge, yellow (yellow nutsedge, Cyperus esculentus), pigweed (Amaranthus retroflexus), ragweed (common ragweed, Ambrosia elatior), soybean (Glycine max), barnyardgrass (Echinochloa crus-galli), oilseed rape (Brassica napus), waterhemp (common waterhemp, Amaranthus rudis), and velvetleaf (Abutilon theophrasti) were planted into a blend of loam soil and sand and treated preemergence with test chemicals formulated in a non-phytotoxic solvent mixture which included a surfactant. At the same time, plants selected from these crop and weed species and also chickweed (common chickweed, Stellaria media), oat, wild (wild oat, Avena fatua), and kochia (Kochia scoparia), were planted in pots containing Sunshine Redi-Earth® planting medium comprising spaghnum peat moss, vermiculite, starter nutrients and dolomitic limestone and treated with postemergence applications of test chemicals formulated in the same manner. Plants ranged in height from 2 to 18 cm (1- to 4-leaf stage) for postemergence treatments. […] A dash (-) response means no test result.

[13] = system: barnyardgrass; assay: Test B flooded paddy test; assay type: in vivo, Echinochloa crus-galli; details: 250 g ai/ha, applied to paddy water at 2-leaf stage, visual rating after 13 to 15 d, scale 0 (no effect) to 100 (complete control)
Outline: as §2

## COc1nc(-c2ccccc2)nn1Cc1ccnc(C(F)(F)F)c1 [Compound 32]
[1]; 31 g ai/ha
  Plant response rating (scale of 0 to 100 where 0 is no effect and 100 is complete control): 35
[1]; 62 g ai/ha
  Plant response rating (scale of 0 to 100 where 0 is no effect and 100 is complete control): 70
[1]; 125 g ai/ha
  Plant response rating (scale of 0 to 100 where 0 is no effect and 100 is complete control): 60
[1]; 250 g ai/ha
  Plant response rating (scale of 0 to 100 where 0 is no effect and 100 is complete control): 60
[2]
  Plant response rating, Sedge, Umbrella, Flood: 75
[3]; 31 g ai/ha
  Plant response rating (scale of 0 to 100 where 0 is no effect and 100 is complete control): 5
[3]; 62 g ai/ha
  Plant response rating (scale of 0 to 100 where 0 is no effect and 100 is complete control): 5
[3]; 125 g ai/ha
  Plant response rating (scale of 0 to 100 where 0 is no effect and 100 is complete control): 5
[3]; 250 g ai/ha
  Plant response rating (scale of 0 to 100 where 0 is no effect and 100 is complete control): 15
[4]; 31 g ai/ha
  Plant response rating (scale of 0 to 100 where 0 is no effect and 100 is complete control): 80
[4]; 62 g ai/ha
  Plant response rating (scale of 0 to 100 where 0 is no effect and 100 is complete control): 90
[4]; 125 g ai/ha
  Plant response rating (scale of 0 to 100 where 0 is no effect and 100 is complete control): 90
[4]; 250 g ai/ha
  Plant response rating (scale of 0 to 100 where 0 is no effect and 100 is complete control): 90
[5]; 31 g ai/ha
  Plant response rating (scale of 0 to 100 where 0 is no effect and 100 is complete control): 10
[5]; 62 g ai/ha
  Plant response rating (scale of 0 to 100 where 0 is no effect and 100 is complete control): 10
[5]; 125 g ai/ha
  Plant response rating (scale of 0 to 100 where 0 is no effect and 100 is complete control): 10
[5]; 250 g ai/ha
  Plant response rating (scale of 0 to 100 where 0 is no effect and 100 is complete control): 10
[6]
  Plant response rating, Ducksalad, Flood: 30
[7]; 31 g ai/ha
  Plant response rating (scale of 0 to 100 where 0 is no effect and 100 is complete control): 10
[7]; 62 g ai/ha
  Plant response rating (scale of 0 to 100 where 0 is no effect and 100 is complete control): 10
[7]; 125 g ai/ha
  Plant response rating (scale of 0 to 100 where 0 is no effect and 100 is complete control): 10
[7]; 250 g ai/ha
  Plant response rating (scale of 0 to 100 where 0 is no effect and 100 is complete control): 10
[8]; 31 g ai/ha
  Plant response rating (scale of 0 to 100 where 0 is no effect and 100 is complete control): 10
[8]; 62 g ai/ha
  Plant response rating (scale of 0 to 100 where 0 is no effect and 100 is complete control): 10
[8]; 125 g ai/ha
  Plant response rating (scale of 0 to 100 where 0 is no effect and 100 is complete control): 55
[8]; 250 g ai/ha
  Plant response rating (scale of 0 to 100 where 0 is no effect and 100 is complete control): 50
[9]; 31 g ai/ha
  Plant response rating (scale of 0 to 100 where 0 is no effect and 100 is complete control): 10
[9]; 62 g ai/ha
  Plant response rating (scale of 0 to 100 where 0 is no effect and 100 is complete control): 15
[9]; 125 g ai/ha
  Plant response rating (scale of 0 to 100 where 0 is no effect and 100 is complete control): 20
[9]; 250 g ai/ha
  Plant response rating (scale of 0 to 100 where 0 is no effect and 100 is complete control): 20
[10]; 31 g ai/ha
  Plant response rating (scale of 0 to 100 where 0 is no effect and 100 is complete control): 80
[10]; 62 g ai/ha
  Plant response rating (scale of 0 to 100 where 0 is no effect and 100 is complete control): 40
[10]; 125 g ai/ha
  Plant response rating (scale of 0 to 100 where 0 is no effect and 100 is complete control): 80
[10]; 250 g ai/ha
  Plant response rating (scale of 0 to 100 where 0 is no effect and 100 is complete control): 65
[11]; 31 g ai/ha
  Plant response rating (scale of 0 to 100 where 0 is no effect and 100 is complete control): 0
[11]; 62 g ai/ha
  Plant response rating (scale of 0 to 100 where 0 is no effect and 100 is complete control): 5
[11]; 125 g ai/ha
  Plant response rating (scale of 0 to 100 where 0 is no effect and 100 is complete control): 5
[11]; 250 g ai/ha
  Plant response rating (scale of 0 to 100 where 0 is no effect and 100 is complete control): 10
[12]; 125 g ai/ha
  Plant response rating (scale of 0 to 100 where 0 is no effect and 100 is complete control): 100
[12]; 250 g ai/ha
  Plant response rating (scale of 0 to 100 where 0 is no effect and 100 is complete control): 98
[12]; 31 g ai/ha
  Crabgrass, Large plant response rating (0 to 100): 65
[12]; 62 g ai/ha
  Crabgrass, Large plant response rating (0 to 100): 90
[13]
  Plant response rating, Barnyardgrass, Flood: 0

## Fc1ccc(-c2nc(OCC(F)(F)F)n(Cc3ccnc(C(F)(F)F)c3)n2)cc1 [Compound 30]
[1]; 31 g ai/ha
  Plant response rating (scale of 0 to 100 where 0 is no effect and 100 is complete control): 65
[1]; 62 g ai/ha
  Plant response rating (scale of 0 to 100 where 0 is no effect and 100 is complete control): 55
[1]; 125 g ai/ha
  Plant response rating (scale of 0 to 100 where 0 is no effect and 100 is complete control): 65
[1]; 250 g ai/ha
  Plant response rating (scale of 0 to 100 where 0 is no effect and 100 is complete control): 85
[2]
  Plant response rating, Sedge, Umbrella, Flood: 90
[3]; 31 g ai/ha
  Plant response rating (scale of 0 to 100 where 0 is no effect and 100 is complete control): 25
[3]; 62 g ai/ha
  Plant response rating (scale of 0 to 100 where 0 is no effect and 100 is complete control): 30
[3]; 125 g ai/ha
  Plant response rating (scale of 0 to 100 where 0 is no effect and 100 is complete control): 40
[3]; 250 g ai/ha
  Plant response rating (scale of 0 to 100 where 0 is no effect and 100 is complete control): 60
[4]; 31 g ai/ha
  Plant response rating (scale of 0 to 100 where 0 is no effect and 100 is complete control): 100
[4]; 62 g ai/ha
  Plant response rating (scale of 0 to 100 where 0 is no effect and 100 is complete control): 100
[4]; 125 g ai/ha
  Plant response rating (scale of 0 to 100 where 0 is no effect and 100 is complete control): 100
[4]; 250 g ai/ha
  Plant response rating (scale of 0 to 100 where 0 is no effect and 100 is complete control): 100
[5]; 31 g ai/ha
  Plant response rating (scale of 0 to 100 where 0 is no effect and 100 is complete control): 30
[5]; 62 g ai/ha
  Plant response rating (scale of 0 to 100 where 0 is no effect and 100 is complete control): 100
[5]; 125 g ai/ha
  Plant response rating (scale of 0 to 100 where 0 is no effect and 100 is complete control): 35
[5]; 250 g ai/ha
  Plant response rating (scale of 0 to 100 where 0 is no effect and 100 is complete control): 30
[6]
  Plant response rating, Ducksalad, Flood: 80
[7]; 31 g ai/ha
  Plant response rating (scale of 0 to 100 where 0 is no effect and 100 is complete control): 5
[7]; 62 g ai/ha
  Plant response rating (scale of 0 to 100 where 0 is no effect and 100 is complete control): 10
[7]; 125 g ai/ha
  Plant response rating (scale of 0 to 100 where 0 is no effect and 100 is complete control): 25
[7]; 250 g ai/ha
  Plant response rating (scale of 0 to 100 where 0 is no effect and 100 is complete control): 25
[8]; 31 g ai/ha
  Plant response rating (scale of 0 to 100 where 0 is no effect and 100 is complete control): 95
[8]; 62 g ai/ha
  Plant response rating (scale of 0 to 100 where 0 is no effect and 100 is complete control): 95
[8]; 125 g ai/ha
  Plant response rating (scale of 0 to 100 where 0 is no effect and 100 is complete control): 100
[8]; 250 g ai/ha
  Plant response rating (scale of 0 to 100 where 0 is no effect and 100 is complete control): 100
[9]; 31 g ai/ha
  Plant response rating (scale of 0 to 100 where 0 is no effect and 100 is complete control): 25
[9]; 62 g ai/ha
  Plant response rating (scale of 0 to 100 where 0 is no effect and 100 is complete control): 20
[9]; 125 g ai/ha
  Plant response rating (scale of 0 to 100 where 0 is no effect and 100 is complete control): 40
[9]; 250 g ai/ha
  Plant response rating (scale of 0 to 100 where 0 is no effect and 100 is complete control): 85
[10]; 31 g ai/ha
  Plant response rating (scale of 0 to 100 where 0 is no effect and 100 is complete control): 80
[10]; 62 g ai/ha
  Plant response rating (scale of 0 to 100 where 0 is no effect and 100 is complete control): 70
[10]; 125 g ai/ha
  Plant response rating (scale of 0 to 100 where 0 is no effect and 100 is complete control): 80
[10]; 250 g ai/ha
  Plant response rating (scale of 0 to 100 where 0 is no effect and 100 is complete control): 100
[11]; 31 g ai/ha
  Plant response rating (scale of 0 to 100 where 0 is no effect and 100 is complete control): 25
[11]; 62 g ai/ha
  Plant response rating (scale of 0 to 100 where 0 is no effect and 100 is complete control): 15
[11]; 125 g ai/ha
  Plant response rating (scale of 0 to 100 where 0 is no effect and 100 is complete control): 30
[11]; 250 g ai/ha
  Plant response rating (scale of 0 to 100 where 0 is no effect and 100 is complete control): 45
[12]; 125 g ai/ha
  Plant response rating (scale of 0 to 100 where 0 is no effect and 100 is complete control): 100
[12]; 250 g ai/ha
  Plant response rating (scale of 0 to 100 where 0 is no effect and 100 is complete control): 100
[12]; 31 g ai/ha
  Crabgrass, Large plant response rating (0 to 100): 98
[12]; 62 g ai/ha
  Crabgrass, Large plant response rating (0 to 100): 100
[13]
  Plant response rating, Barnyardgrass, Flood: 30
